Laboratory results from ChEMBL document CHEMBL3392970, “Novel inhibitors of platelet aggregation” (ACS Med Chem Lett, 2015).

Assays:
[1] = tested on: Plasma; test: Antiplatelet activity in human platelet-rich plasma assessed as inhibition of platelet aggregation; assay type: functional, cell-free
[2] = tested on: Plasma; test: Antiplatelet activity in rat platelet-rich plasma assessed as inhibition of platelet aggregation; assay type: functional, cell-free

SMILES: CCCC(=O)c1cnn([C@H]2CC[C@H](NC(=O)c3cn(CC(=O)N4CCN(C)CC4)c4ccc(Cl)cc34)CC2)c1C
- IC50 [1]: 270 nM
- IC50 [2]: 91 nM

SMILES: CCCC(=O)c1cnn(C2CCN(NC(=O)c3cn(CC(=O)N4CCN(C)CC4)c4ccc(Cl)cc34)CC2)c1C
- IC50 [1]: 25 nM
- IC50 [2]: 43 nM
